According to ChEMBL document CHEMBL4507274 (2021):

How the values were obtained:
[1] = biological target: Receptor tyrosine-protein kinase erbB-3 (Homo sapiens) (UniProt P21860); settings: Compound concentration 100.0 nM
[2] = biological target: Myosin light chain kinase, smooth muscle (Homo sapiens) (UniProt Q15746); settings: Compound concentration 100.0 nM
[3] = biological target: Mitogen-activated protein kinase kinase kinase 4 (Homo sapiens) (UniProt Q9Y6R4); settings: Compound concentration 100.0 nM
[4] = biological target: Phosphatidylinositol 4-phosphate 5-kinase type-1 gamma (Homo sapiens) (UniProt O60331); settings: Compound concentration 100.0 nM
[5] = biological target: Interleukin-1 receptor-associated kinase 1 (Homo sapiens) (UniProt P51617); settings: Compound concentration 100.0 nM
[6] = biological target: Tyrosine-protein kinase BTK (Homo sapiens) (UniProt Q06187); settings: Compound concentration 100.0 nM
[7] = biological target: Mitogen-activated protein kinase kinase kinase kinase 1 (Homo sapiens) (UniProt Q92918); settings: Compound concentration 100.0 nM
[8] = biological target: Serine/threonine-protein kinase RIO2 (Homo sapiens) (UniProt Q9BVS4); settings: Compound concentration 100.0 nM
[9] = biological target: Serine/threonine-protein kinase PAK 5 (Homo sapiens) (UniProt Q9P286); settings: Compound concentration 100.0 nM
[10] = biological target: Cyclin-dependent kinase 19 (Homo sapiens) (UniProt Q9BWU1); settings: Compound concentration 100.0 nM
[11] = biological target: Proto-oncogene tyrosine-protein kinase Src (Homo sapiens) (UniProt P12931); settings: Compound concentration 100.0 nM
[12] = biological target: Interleukin-1 receptor-associated kinase 4 (Homo sapiens) (UniProt Q9NWZ3); settings: Compound concentration 100.0 nM
[13] = test system: Proto-oncogene tyrosine-protein kinase receptor Ret (Homo sapiens), P07949 [V804M]; settings: Compound concentration 100.0 nM
[14] = biological target: Serine/threonine-protein kinase TBK1 (Homo sapiens) (UniProt Q9UHD2); settings: Compound concentration 100.0 nM
[15] = biological target: MAP/microtubule affinity-regulating kinase 4 (Homo sapiens) (UniProt Q96L34); settings: Compound concentration 100.0 nM
[16] = biological target: Tyrosine-protein kinase ITK/TSK (Homo sapiens) (UniProt Q08881); settings: Compound concentration 100.0 nM
[17] = biological target: Interferon-induced, double-stranded RNA-activated protein kinase (Homo sapiens) (UniProt P19525); settings: Compound concentration 100.0 nM
[18] = biological target: Megakaryocyte-associated tyrosine-protein kinase (Homo sapiens) (UniProt P42679); settings: Compound concentration 100.0 nM
[19] = biological target: Dual specificity mitogen-activated protein kinase kinase 1 (Homo sapiens) (UniProt Q02750); settings: Compound concentration 100.0 nM
[20] = biological target: Angiopoietin-1 receptor (Homo sapiens) (UniProt Q02763); settings: Compound concentration 100.0 nM
[21] = biological target: Mast/stem cell growth factor receptor Kit (Homo sapiens) (UniProt P10721); settings: Compound concentration 100.0 nM
[22] = test system: Mast/stem cell growth factor receptor Kit (Homo sapiens), P10721 [D816V]; settings: Compound concentration 100.0 nM
[23] = biological target: Mu-type opioid receptor (Homo sapiens) (UniProt P35372); settings: Compound concentration 10.0 uM
[24] = biological target: Dual specificity tyrosine-phosphorylation-regulated kinase 1B (Homo sapiens) (UniProt Q9Y463); settings: Compound concentration 100.0 nM
[25] = biological target: Serine/threonine-protein kinase 38-like (Homo sapiens) (UniProt Q9Y2H1); settings: Compound concentration 100.0 nM
[26] = biological target: T1, Mitogen-activated protein kinase 12 (Homo sapiens) (UniProt P53778); settings: Compound concentration 100.0 nM
T1 sequence (whole entry): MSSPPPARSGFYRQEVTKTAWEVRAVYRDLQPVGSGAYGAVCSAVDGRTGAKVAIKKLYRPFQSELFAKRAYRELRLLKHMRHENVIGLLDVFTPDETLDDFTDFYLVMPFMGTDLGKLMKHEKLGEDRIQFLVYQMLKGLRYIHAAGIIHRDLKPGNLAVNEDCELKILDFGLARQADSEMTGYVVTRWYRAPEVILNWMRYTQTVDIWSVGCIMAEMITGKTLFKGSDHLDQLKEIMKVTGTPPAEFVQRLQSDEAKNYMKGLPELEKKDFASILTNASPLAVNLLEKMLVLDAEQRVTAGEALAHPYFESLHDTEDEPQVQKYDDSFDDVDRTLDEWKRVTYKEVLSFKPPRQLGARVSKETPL

[27] = biological target: Serine/threonine-protein kinase SIK3 (Homo sapiens) (UniProt Q9Y2K2); settings: Compound concentration 100.0 nM
[28] = biological target: Serine/threonine-protein kinase N1 (Homo sapiens) (UniProt Q16512); settings: Compound concentration 100.0 nM
[29] = biological target: AP2-associated protein kinase 1 (Homo sapiens) (UniProt Q2M2I8); settings: Compound concentration 100.0 nM
[30] = biological target: Cyclin-dependent kinase 16 (Homo sapiens) (UniProt Q00536); settings: Compound concentration 100.0 nM
[31] = biological target: Serine/threonine-protein kinase D3 (Homo sapiens) (UniProt O94806); settings: Compound concentration 100.0 nM
[32] = test system: Phosphatidylinositol 4,5-bisphosphate 3-kinase catalytic subunit alpha isoform (Homo sapiens), P42336 [H1047L]; settings: Compound concentration 100.0 nM
[33] = biological target: Casein kinase I isoform gamma-2 (Homo sapiens) (UniProt P78368); settings: Compound concentration 100.0 nM
[34] = biological target: Serine/threonine-protein kinase DCLK3 (Homo sapiens) (UniProt Q9C098); settings: Compound concentration 100.0 nM
[35] = biological target: Phosphorylase b kinase regulatory subunit alpha, liver isoform (Homo sapiens) (UniProt P46019); settings: Compound concentration 100.0 nM
[36] = biological target: Mitogen-activated protein kinase kinase kinase kinase 5 (Homo sapiens) (UniProt Q9Y4K4); settings: Compound concentration 100.0 nM
[37] = biological target: Mitogen-activated protein kinase 14 (Homo sapiens) (UniProt Q16539); settings: Compound concentration 100.0 nM
[38] = biological target: Delta-type opioid receptor (Homo sapiens) (UniProt P41143); settings: Compound concentration 10.0 uM
[39] = biological target: Maternal embryonic leucine zipper kinase (Homo sapiens) (UniProt Q14680); settings: Compound concentration 100.0 nM
[40] = biological target: Cyclin-dependent kinase 5 (Homo sapiens) (UniProt Q00535); settings: Compound concentration 100.0 nM

Mitogen-activated protein kinase kinase kinase kinase 5 (Homo sapiens), sequence (Q9Y4K4 whole entry, looked up): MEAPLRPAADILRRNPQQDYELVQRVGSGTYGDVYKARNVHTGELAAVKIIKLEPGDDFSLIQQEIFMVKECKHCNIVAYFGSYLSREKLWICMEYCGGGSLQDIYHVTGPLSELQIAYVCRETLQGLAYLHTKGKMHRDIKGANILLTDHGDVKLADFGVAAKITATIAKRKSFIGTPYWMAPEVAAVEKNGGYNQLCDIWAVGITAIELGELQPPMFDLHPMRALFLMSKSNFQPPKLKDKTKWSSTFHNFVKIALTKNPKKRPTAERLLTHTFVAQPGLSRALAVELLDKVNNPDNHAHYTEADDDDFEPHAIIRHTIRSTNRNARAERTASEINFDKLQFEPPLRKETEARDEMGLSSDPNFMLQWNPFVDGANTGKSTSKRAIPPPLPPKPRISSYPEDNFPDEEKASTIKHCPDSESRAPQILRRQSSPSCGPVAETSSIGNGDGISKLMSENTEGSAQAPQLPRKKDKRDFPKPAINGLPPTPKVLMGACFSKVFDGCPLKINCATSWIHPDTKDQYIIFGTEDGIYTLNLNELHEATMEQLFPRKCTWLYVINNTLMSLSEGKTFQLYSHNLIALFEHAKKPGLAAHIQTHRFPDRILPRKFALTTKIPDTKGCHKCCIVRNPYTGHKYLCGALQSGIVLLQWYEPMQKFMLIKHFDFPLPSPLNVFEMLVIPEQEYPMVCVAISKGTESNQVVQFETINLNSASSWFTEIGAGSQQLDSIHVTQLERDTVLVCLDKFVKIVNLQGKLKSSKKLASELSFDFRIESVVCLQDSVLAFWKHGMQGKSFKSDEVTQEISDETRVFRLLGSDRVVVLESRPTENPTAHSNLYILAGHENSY
Interferon-induced, double-stranded RNA-activated protein kinase (Homo sapiens), sequence (P19525 whole entry): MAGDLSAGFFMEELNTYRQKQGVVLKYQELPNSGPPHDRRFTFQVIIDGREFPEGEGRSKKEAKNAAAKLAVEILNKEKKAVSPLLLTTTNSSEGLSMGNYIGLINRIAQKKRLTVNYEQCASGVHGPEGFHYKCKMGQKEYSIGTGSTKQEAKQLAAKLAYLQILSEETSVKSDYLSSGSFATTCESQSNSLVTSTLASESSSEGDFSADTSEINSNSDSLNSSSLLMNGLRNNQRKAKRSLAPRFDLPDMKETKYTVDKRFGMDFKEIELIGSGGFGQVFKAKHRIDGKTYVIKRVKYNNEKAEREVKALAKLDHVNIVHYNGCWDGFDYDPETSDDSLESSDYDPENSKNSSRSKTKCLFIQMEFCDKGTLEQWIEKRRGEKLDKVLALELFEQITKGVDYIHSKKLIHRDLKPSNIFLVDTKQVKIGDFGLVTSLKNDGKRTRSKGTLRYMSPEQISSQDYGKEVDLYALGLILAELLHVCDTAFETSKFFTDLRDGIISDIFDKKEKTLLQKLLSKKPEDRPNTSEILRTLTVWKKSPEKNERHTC
Mitogen-activated protein kinase 14 (Homo sapiens), sequence (Q16539 whole entry): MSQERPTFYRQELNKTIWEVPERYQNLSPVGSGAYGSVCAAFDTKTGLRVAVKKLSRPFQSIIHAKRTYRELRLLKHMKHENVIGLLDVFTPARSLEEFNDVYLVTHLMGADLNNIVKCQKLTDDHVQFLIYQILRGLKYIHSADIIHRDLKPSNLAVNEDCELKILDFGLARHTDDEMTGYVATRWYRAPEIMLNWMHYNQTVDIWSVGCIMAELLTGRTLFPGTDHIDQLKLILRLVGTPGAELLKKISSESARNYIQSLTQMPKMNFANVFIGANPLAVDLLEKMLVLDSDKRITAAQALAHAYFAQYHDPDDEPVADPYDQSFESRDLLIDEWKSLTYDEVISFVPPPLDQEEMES
Mu-type opioid receptor (Homo sapiens), sequence (P35372 whole entry): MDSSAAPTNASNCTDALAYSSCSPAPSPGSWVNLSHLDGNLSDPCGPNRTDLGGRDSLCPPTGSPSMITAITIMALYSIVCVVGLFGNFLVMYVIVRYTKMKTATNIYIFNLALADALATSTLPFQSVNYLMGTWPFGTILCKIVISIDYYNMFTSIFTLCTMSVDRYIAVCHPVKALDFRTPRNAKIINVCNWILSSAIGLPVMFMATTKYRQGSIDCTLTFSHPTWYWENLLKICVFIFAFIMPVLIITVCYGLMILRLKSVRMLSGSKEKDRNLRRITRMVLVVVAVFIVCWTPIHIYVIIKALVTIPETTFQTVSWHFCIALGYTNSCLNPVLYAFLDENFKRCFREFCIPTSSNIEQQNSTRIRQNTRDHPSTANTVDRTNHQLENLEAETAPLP
Cyclin-dependent kinase 16 (Homo sapiens), sequence (Q00536 whole entry): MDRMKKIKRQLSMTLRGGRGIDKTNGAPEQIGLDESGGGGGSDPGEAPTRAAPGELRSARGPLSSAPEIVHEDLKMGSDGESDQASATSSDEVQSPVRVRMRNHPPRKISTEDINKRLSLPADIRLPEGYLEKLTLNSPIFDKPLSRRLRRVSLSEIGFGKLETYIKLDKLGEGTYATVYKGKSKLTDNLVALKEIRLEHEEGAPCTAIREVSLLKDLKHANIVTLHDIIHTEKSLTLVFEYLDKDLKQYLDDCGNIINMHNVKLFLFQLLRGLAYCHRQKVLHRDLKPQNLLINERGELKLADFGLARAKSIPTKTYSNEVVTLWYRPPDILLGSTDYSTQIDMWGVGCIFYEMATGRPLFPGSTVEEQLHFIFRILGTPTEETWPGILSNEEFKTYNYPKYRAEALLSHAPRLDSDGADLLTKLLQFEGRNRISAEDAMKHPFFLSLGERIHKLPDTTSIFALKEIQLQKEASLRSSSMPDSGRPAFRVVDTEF
Delta-type opioid receptor (Homo sapiens), sequence (P41143 whole entry): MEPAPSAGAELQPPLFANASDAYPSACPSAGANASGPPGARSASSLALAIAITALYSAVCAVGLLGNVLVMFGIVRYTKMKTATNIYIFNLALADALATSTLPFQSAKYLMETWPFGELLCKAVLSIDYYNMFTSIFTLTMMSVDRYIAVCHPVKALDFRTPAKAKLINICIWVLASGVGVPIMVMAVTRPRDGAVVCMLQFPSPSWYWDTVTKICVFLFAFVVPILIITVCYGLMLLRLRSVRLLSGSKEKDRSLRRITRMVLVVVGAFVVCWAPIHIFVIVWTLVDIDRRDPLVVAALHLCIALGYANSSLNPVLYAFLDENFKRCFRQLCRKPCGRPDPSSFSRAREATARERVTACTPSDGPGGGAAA
Casein kinase I isoform gamma-2 (Homo sapiens), sequence (P78368 whole entry, looked up, canonical isoform): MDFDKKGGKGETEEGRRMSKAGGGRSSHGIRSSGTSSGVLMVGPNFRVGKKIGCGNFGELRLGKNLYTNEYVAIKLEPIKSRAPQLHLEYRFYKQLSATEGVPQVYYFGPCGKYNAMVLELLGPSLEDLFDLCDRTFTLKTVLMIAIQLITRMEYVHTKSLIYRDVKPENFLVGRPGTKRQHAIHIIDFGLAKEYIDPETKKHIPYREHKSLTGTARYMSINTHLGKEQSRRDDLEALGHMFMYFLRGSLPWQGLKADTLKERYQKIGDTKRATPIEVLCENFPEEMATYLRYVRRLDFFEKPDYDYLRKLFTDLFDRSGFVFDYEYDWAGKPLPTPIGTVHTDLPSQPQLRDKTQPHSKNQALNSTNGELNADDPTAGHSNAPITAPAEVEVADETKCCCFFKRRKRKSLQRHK
Phosphatidylinositol 4,5-bisphosphate 3-kinase catalytic subunit alpha isoform (Homo sapiens), P42336 [H1047L], sequence (P42336 whole entry H1047L, canonical isoform): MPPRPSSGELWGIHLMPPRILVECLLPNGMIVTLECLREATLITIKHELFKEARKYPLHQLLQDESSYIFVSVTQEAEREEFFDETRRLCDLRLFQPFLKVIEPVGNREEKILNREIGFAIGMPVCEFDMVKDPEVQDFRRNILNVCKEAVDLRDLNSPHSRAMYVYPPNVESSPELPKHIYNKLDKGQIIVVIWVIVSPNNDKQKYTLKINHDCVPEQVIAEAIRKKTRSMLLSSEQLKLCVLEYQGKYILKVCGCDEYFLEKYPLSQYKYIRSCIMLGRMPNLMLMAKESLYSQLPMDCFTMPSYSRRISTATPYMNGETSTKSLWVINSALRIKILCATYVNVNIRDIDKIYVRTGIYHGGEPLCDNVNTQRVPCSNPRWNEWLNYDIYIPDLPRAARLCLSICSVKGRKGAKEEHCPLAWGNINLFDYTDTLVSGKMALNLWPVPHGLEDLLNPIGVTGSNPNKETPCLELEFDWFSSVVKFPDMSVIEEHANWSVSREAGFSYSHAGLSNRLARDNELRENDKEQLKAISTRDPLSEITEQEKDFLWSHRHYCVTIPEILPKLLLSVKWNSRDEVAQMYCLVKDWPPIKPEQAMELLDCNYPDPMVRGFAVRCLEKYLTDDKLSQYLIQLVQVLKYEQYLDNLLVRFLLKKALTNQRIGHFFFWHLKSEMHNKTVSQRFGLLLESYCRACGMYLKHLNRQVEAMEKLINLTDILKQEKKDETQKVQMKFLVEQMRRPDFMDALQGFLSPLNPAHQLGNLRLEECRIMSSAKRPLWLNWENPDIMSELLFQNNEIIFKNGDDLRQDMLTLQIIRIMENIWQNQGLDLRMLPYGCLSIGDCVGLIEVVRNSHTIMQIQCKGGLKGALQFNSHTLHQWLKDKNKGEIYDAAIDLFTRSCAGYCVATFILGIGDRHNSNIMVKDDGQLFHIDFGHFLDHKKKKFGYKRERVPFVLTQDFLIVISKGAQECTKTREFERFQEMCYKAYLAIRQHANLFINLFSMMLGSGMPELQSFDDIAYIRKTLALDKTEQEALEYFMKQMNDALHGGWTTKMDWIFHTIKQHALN
Serine/threonine-protein kinase 38-like (Homo sapiens), sequence (Q9Y2H1 2-464 limits assumed): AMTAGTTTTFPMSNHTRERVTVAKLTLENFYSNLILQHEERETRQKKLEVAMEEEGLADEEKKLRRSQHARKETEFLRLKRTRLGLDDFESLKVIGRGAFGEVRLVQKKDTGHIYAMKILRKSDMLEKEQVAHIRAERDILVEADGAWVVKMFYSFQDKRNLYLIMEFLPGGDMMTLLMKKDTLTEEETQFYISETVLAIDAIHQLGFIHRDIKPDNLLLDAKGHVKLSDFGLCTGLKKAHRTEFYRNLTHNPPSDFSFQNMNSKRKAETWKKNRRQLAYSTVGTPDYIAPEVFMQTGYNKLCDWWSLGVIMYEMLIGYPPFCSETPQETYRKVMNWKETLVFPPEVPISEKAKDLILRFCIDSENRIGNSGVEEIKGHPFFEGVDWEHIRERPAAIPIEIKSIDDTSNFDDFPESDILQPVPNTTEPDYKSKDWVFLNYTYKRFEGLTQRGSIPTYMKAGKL

Cc1c[nH]c2nccc(Oc3c(F)cc(Nc4cc(Cl)nc(N)n4)cc3F)c12 [BAY-549]
inactive: residual activity [1] 65% | residual activity [2] 80% | residual activity [3] 100% | residual activity [4] 78% | residual activity [5] 90% | residual activity [6] 96% | residual activity [7] 73% | residual activity [8] 85% | residual activity [9] 92% | residual activity [10] 80% | residual activity [11] 100% | residual activity [12] 85% | residual activity [13] 100% | residual activity [14] 96% | residual activity [15] 100% | residual activity [16] 81% | residual activity [17] 100% | residual activity [18] 88% | residual activity [19] 81% | residual activity [20] 95% | residual activity [21] 75% | residual activity [22] 100% | inhibition [23] -0.03% | residual activity [24] 100% | residual activity [25] 87% | residual activity [26] 100% | residual activity [27] 100% | residual activity [28] 72% | residual activity [29] 99% | residual activity [30] 99% | residual activity [31] 100% | residual activity [32] 81% | residual activity [33] 94% | residual activity [34] 97% | residual activity [35] 89% | residual activity [36] 93% | residual activity [37] 100% | inhibition [38] 7.96% | residual activity [39] 57% | residual activity [40] 94%

Cn1cc(Cl)c2c(Oc3c(F)cc(Nc4cc(Cl)nc(N)n4)cc3F)ccnc21 [BAY-4900]
inactive: residual activity [1] 75% | residual activity [2] 95% | residual activity [3] 100% | residual activity [4] 93% | residual activity [5] 95% | residual activity [6] 84% | residual activity [7] 82% | residual activity [8] 100% | residual activity [9] 90% | residual activity [10] 88% | residual activity [11] 92% | residual activity [12] 90% | residual activity [13] 95% | residual activity [14] 100% | residual activity [15] 100% | residual activity [16] 97% | residual activity [17] 100% | residual activity [18] 97% | residual activity [19] 90% | residual activity [20] 100% | residual activity [21] 95% | residual activity [22] 97% | inhibition [23] -9.98% | residual activity [24] 82% | residual activity [25] 100% | residual activity [26] 100% | residual activity [27] 100% | residual activity [28] 100% | residual activity [29] 100% | residual activity [30] 100% | residual activity [31] 100% | residual activity [32] 83% | residual activity [33] 83% | residual activity [34] 89% | residual activity [35] 100% | residual activity [36] 91% | residual activity [37] 100% | inhibition [38] -5.39% | residual activity [39] 89% | residual activity [40] 100%
